According to patent publication US3962449A, “Cardioactive bispidones and bispidines” (priority 1974, dated 1976):
Like-named read-outs stand apart in the source and are kept apart here.

Assays:
[1] = test system: left auricle of the heart of guinea pigs; assay: Functional refractory period and contractility of the isolated left auricle (paired electrical stimulation, adapted from Govier); assay type: cell-based, guinea pig; design: Anti-arrhythmic effect (Refractory period extension) ED25 / Inotropic effect (Contraction force lowering) ED25: unit not given here; details: for Anti-arrhythmic effect (Refractory period extension) ED25: effective dose which extends the refractory period by 25%; for Anti-arrhythmic effect (Refractory period extension) ED25 / Inotropic effect (Contraction force lowering) ED25: guinea pig left auricle, up to 30 minutes; for Inotropic effect (Contraction force lowering) ED25: effective dose which lowers the contractional force by 25%; for Therapeutic Breadth (III/II): ratio of inotropic ED25 to anti-arrhythmic ED25
Text: The experimental procedure utilized paired electrical stimulation in an adaptation of the method of […]. Pharmacol. Exp. […] In this model, the numerous known anti-arrhythmical preparations of differing structure and point of therapeutic attack all show an prolongation of the functional refractory period. The experiment additionally permits a study of the effects of different substances on the contractility of the heart muscles [Reuter und Heeg, Naunyn, Naunyn-Schmiedeberg's Arch. Pharmakol. […] Pharmakol. […] Therefore the experiment is suitable for discovering which substances have the greatest therapeutic range, that is to say, which have the greatest safety margin between the anti-arrhythmic and the negatively inotropically effective dosages. To test the substances, up to 18 and 30 individual experiments were carried out in each case. At least 3 dosages were tested each on 6 auricle preparations and the linear regression functions were calculated[[…] In column II, the […] shown and in column III, the inotropic effect is shown. In column IV, the therapeutic range of the compounds is shown.

[2] = difference between doses producing an anti-arrhythmic effect and a negative inotropic effect; cited from earlier work
[3] = test system: experimentally induced heart rhythm disturbances (aconitine) in rats; assay: Aconitine-induced heart rhythm disturbances in rats, intravenous pre-treatment; assay type: in vivo, rat; details: for ED25 / ED50: Rattus norvegicus, iv; for occurrence of heart rhythm disturbances on pre-treatment: aconitine continuously infused intravenously
Text: If rats are continuously infused intravenously with aconitine, then serious disturbances of the cardiac rhythm such as extrasystole, ventricular tachycardia, and ventricular flutter, which finally lead to the death of the experimental animals, can be observed on an electrocardiogram. […] This experimental arrhythmic model is checked by means of clinically tested standard therapeutic compounds as to its reliability and is well suited for characterizing antiarrhythmical compounds in experiments on animals [cf. for example, Bianci et al., Arzneim.-Forsch. 18, 845- 850 (1968); Haas und Busch, Arzneim.-Forsch. 18, 401- 407 (1968); Haas et al., Arzneim.-Forsch.21, 1392- 1399 (1971); Marmo, Naunyn-Schmiedeberg's Arch. Pharmakol. 269, 231- 247 (1971); and Strubelt et al., Naunyn-Schmiedeberg's Arch. Pharmakol. 271, 346- 360 (1971.]
The ED25 or ED50 are the intravenous dosages in mg/kg which allow an increase in administered aconitine doses, relative to the control, by 25 or 50%, respectively, before the occurrence of extrasystoles, ventricular tachycardia, and ventricular flutter.

[4] = read-out: Ventricular Tachycardia ED25
[5] = read-out: Ventricular Tachycardia ED50
[6] = read-out: Ventricular flutter ED25
[7] = read-out: Ventricular flutter ED50

| Compound | Anti-arrhythmic effect (Refractory period extension) ED25 [1] | Inotropic effect (Contraction force lowering) ED25 [1] | Therapeutic Breadth (III/II) [1] | therapeutic range [2] | ED25 ([3]; read-out: Extrasystoles ED25) | ED50 ([3]; read-out: Extrasystoles ED50) | ED25 [3, 4] | ED50 [3, 5] | ED25 [3, 6] | ED50 [3, 7] | occurrence of heart rhythm disturbances on pre-treatment ([3]; rats) | Extrasystoles ED25 ([3]; intravenous, dose allowing 25% increase in aconitine dose relative to control before extrasystoles, rats) | Ventricular flutter ED25 ([3]; intravenous, dose allowing 25% increase in aconitine dose relative to control before ventricular flutter, rats) | Extrasystoles ED50 ([3]; intravenous, dose allowing 50% increase in aconitine dose relative to control before extrasystoles, rats) | Ventricular flutter ED50 ([3]; intravenous, dose allowing 50% increase in aconitine dose relative to control before ventricular flutter, rats) |
| --- | --- | --- | --- | --- | --- | --- | --- | --- | --- | --- | --- | --- | --- | --- | --- |
| c1ccc(CN(CC2=NCCN2)c2ccccc2)cc1 [Antazolin] | 0.164 | 0.094 | 0.6 | narrow therapeutic range |  |  |  |  |  |  |  |  |  |  |  |
| CCC[N+]12[C@H](O)[C@@H](CC)[C@@H]3C[C@H]1[C@@H]1N(C)c4ccccc4[C@]14C[C@H]2[C@@H]3[C@H]4O [N-n-propylajmalin] | 0.0037 | 0.0015 | 0.4 |  |  |  |  |  |  |  |  |  |  |  |  |
| CCN(CC)CC(=O)Nc1c(C)cccc1C [Lidocain] | 0.47 | 0.48 | 1.0 | narrow therapeutic range |  |  |  |  |  |  |  |  |  |  |  |
| c1ccc(CN2CC3CC(C2)CN(Cc2ccccc2)C3)cc1 [N,N'-dibenzyl-bispidine, N,N'-dibenzylbispidine] | 0.034 | 0.07 | 2.0 |  | 1.06 mg/kg | 1.76 mg/kg | 0.87 mg/kg | 1.23 mg/kg | 1.03 mg/kg | 1.48 mg/kg | prevented or at least substantially delayed |  |  |  |  |
| CC(C)N1CC2CC(CN(CCc3ccccc3)C2)C1 [N-isopropyl-N'-β-phenylethyl-bispidine] | 0.13 | 0.26 | 2.0 |  | ~1.8 mg/kg | ~2.3 mg/kg | 1.41 mg/kg | 2.13 mg/kg | 1.7 mg/kg | 2.47 mg/kg | prevented or at least substantially delayed |  |  |  |  |
| C1CCN2CC3CC(CN4CCCCC34)C2C1 (single isomer, unassigned) [Spartein, reference compound] |  |  |  |  |  |  | 4.43 mg/kg | 9.55 mg/kg |  |  |  | +) | +) | +) | +) |
